Results from patent US7855073B2, “Cells containing a nanopatch sensor in their membrane” (Ben-Gurion University of the Negev Research and Development …, priority 2003, dated 2010).

What was measured:
[1] = system: U937 cells; experiment: Detection of membrane perturbations by fluorescence microscopy, nanopatch-containing U937 cells; format: cell-based, human
Description: U937 cells were grown and prepared as described in section 1.1 of Example 1, hereinabove. The precursors of the Lipid/PDA constructs (i.e. a mixture of 10,12-tricosadiynoic acid, PE and PG at a molar ratio of 8:1:1) were prepared and introduced into the cells in accordance with the methods described in sections 1.2 and 1.3 of Example 1.
Separate aliquots of cells containing the lipid/PDA constructs were then subjected to the membrane-perturbing treatments described below.
Transmission differential interference contrast (DIC) and fluorescence images of the cells were acquired on a laser scanning confocal microscope (Olympus IX70) with an PlApo 60× objective using oil (NA 1.4). Excitation was at 488 nm using argon laser source. Emitted light was collected through a LP 560 nm filter.

[2] = system: CHO cells; experiment: Detection of membrane perturbations, nanopatch-containing CHO cells; format: cell-based; conditions: FIG. 10
Description: PDA nanopatch-containing CHO cells were prepared as described in Example 1, hereinabove, and treated with propranolol, a membrane-active pharmaceutical compound.

[3] = system: cultured neuronal cells; experiment: Detection of membrane perturbations, nanopatch-containing neuron cells; format: cell-based, rat; conditions: 50 mM in medium; FIG. 7
Description: Cell cultures were prepared from the Hippocampi of one-day-old rat pups as follows. Tissue was treated for 30 min at 37° C. with 0.25% trypsin (type XI; Sigma), and then gently triturated and the dissociated cells were plated at a concentration of 2×10^5/ml onto poly-D-lysine ([…]; Sigma) and laminin ([…]; Collaborative Research)—coated glass coverslips. Cells were plated in Eagle's minimal essential medium (MEM) containing 10% heat-inactivated fetal bovine serum (HyClone), 2 mM glutamine, and 0.76% glucose. On the following day, the medium was replaced with fresh SF1C medium [Rayport, D. et al. (1992) J. Neurosci. 12, 4264-4280], including B-27 supplements (GIBCO). The cells were grown for up to 12 days in a humid incubator containing 5% CO2/95% air at 37° C. prior to use.
Cells were incubated with DMPE/DMPG/PDA-1:1:6 (mole ratio) vesicles in TG1 buffer (119 mM NaCl, 5 mM KCl, 30 mM Glucose, 32 mM Sucrose, 20 mM Hepes, pH=7.3) for 1 hour at room temperature. Following the fusion, vesicles were polymerized by UV irradiation at 254 nm for 10 seconds and the unbound vesicles were washed 3 times with TG1 buffer.
Fluorescent images of the cells were acquired using a Zeiss 200M microscope (Germany) fitted with a CY3 570-650 nm emission range filter (Chroma Technology Corp., Rockingham, Vt.) and CCD cooled camera (PCO). […]

[4] = system: Erythrocyte "ghosts"; experiment: Detection of membrane perturbations, nanopatch-containing erythrocyte ghosts; format: cell-based; conditions: ghosts labeled with DMPC/PDA liposomes; FIG. 11
Description: Erythrocyte “ghosts” (i.e. emptied cells) were labeled with DMPC/PDA liposomes, following which the nanopatch-containing cells were treated with the membrane active compound melittin.

For OC[C@H]1O[C@@](CO)(O[C@H]2O[C@H](CO)[C@@H](O)[C@H](O)[C@H]2O)[C@@H](O)[C@@H]1O [sucrose], the “Fluorescent emission of the lipid/PDA constructs (membrane perturbation)” value ([1]; 1 M, 25° C., 5 to 15 minutes, FIG. 3) was “fluorescent emission”.
CCN(CC)CC(=O)Nc1c(C)cccc1C [lidocaine] was tested, and the “Fluorescent emission of the lipid/PDA constructs (membrane perturbation)” value ([1]; 5 μM, 25° C., 5 to 15 minutes, FIG. 5) was “characteristic fluorescent emission” and the “Fluorescent emission of the lipid/PDA constructs (membrane perturbation)” value ([1]; 1 mM, FIG. 8 panel B) was “characteristic fluorescent emission associated with perturbation of the PDA construct is readily observed”.
For CC(C)NCC(O)COc1cccc2ccccc12 (centres unmarked) [propranolol], the “Fluorescent emission associated with perturbation of the PDA-lipid constructs” value [2] was “characteristic fluorescent emission associated with perturbation of the PDA-lipid constructs embedded in the cell membrane is readily observed”.
For [Ca+2] [calcium ions], the “Fluorescent emission from the red phase of the polydiacetylene polymer” value [3] was “white fluorescent light emitted by the cells”.
In the case of CC[C@H](C)[C@H](NC(=O)CN)C(=O)NCC(=O)N[C@@H](C)C(=O)N[C@H](C(=O)N[C@@H](CC(C)C)C(=O)N[C@@H](CCCCN)C(=O)N[C@H](C(=O)N[C@@H](CC(C)C)C(=O)N[C@H](C(=O)N[C@H](C(=O)NCC(=O)N[C@@H](CC(C)C)C(=O)N1CCC[C@H]1C(=O)N[C@@H](C)C(=O)N[C@@H](CC(C)C)C(=O)N[C@H](C(=O)N[C@@H](CO)C(=O)N[C@@H](Cc1c[nH]c2ccccc12)C(=O)N[C@H](C(=O)N[C@@H](CCCCN)C(=O)N[C@@H](CCCNC(=N)N)C(=O)N[C@@H](CCCCN)C(=O)N[C@@H](CCCNC(=N)N)C(=O)N[C@@H](CCC(N)=O)C(=O)N[C@@H](CCC(N)=O)C(N)=O)[C@@H](C)CC)[C@@H](C)CC)[C@@H](C)O)[C@@H](C)O)C(C)C)C(C)C [melittin], the “Fluorescence from transformed red PDA” value [4] is reported as “fluorescence spots”, the “Fluorescent emission of the lipid/PDA constructs (membrane perturbation)” value ([1]; 5 μM and 50 μM, FIG. 8 panels C, D) is reported as “results in the characteristic fluorescent emission” and the “Dependence of fluorescent emission on dose” value ([1]; 5 μM versus 50 μM, FIG. 8 panels C, D) is reported as “dose-dependent”.
